Experimental data published in patent publication US10457707B2, “Substituted urea depsipeptide analogs as activators of the CLPP endopeptidase” (priority 2015, dated 2019).
*1 amine or outer side, *2 acyl side, *3 side chain or, on linkers, in order; H or OH if unused. Where a SMILES comes first, the peptide text is derived from it. Bridges are numbered along the chain shown (N, C = ends). [ ]: non-standard residue; d: D form. The star is where a group is joined. ξ: configuration not given here. Phe(3,5-F2) = N[C@@H](Cc1cc(F)cc(F)c1)C(=O)O; NH(4-OCF3-phenyl) = FC(F)(F)Oc1ccc(N*)cc1; Morpholine(3S-CO) = O=C(O)[C@@H]1COCCN1; Pro(4S-Me) = C[C@@H]1CN[C@H](C(=O)O)C1; NH(4-Cl-2-F-phenyl) = Fc1cc(Cl)ccc1N*; Pro(4R-Me) = C[C@H]1CN[C@H](C(=O)O)C1; ξPro(4R-OH) = O=C(O)C1C[C@@H](O)CN1; NMeaThr = CN[C@H](C(=O)O)[C@H](C)O; ξPro(4R-Me) = C[C@H]1CNC(C(=O)O)C1; Hyp = O=C(O)[C@@H]1C[C@@H](O)CN1; NH(4-Et-phenyl) = CCc1ccc(N*)cc1; NMeT = CN[C@H](C(=O)O)[C@@H](C)O; Heptenoyl(2E) = CCCC/C=C/C(=O)*; NH(4-Me-phenyl) = Cc1ccc(N*)cc1; aThr = C[C@H](O)[C@H](N)C(=O)O; Pip = O=C(O)[C@@H]1CCCCN1; NMeA = CN[C@@H](C)C(=O)O; CO = O=C([*:1])[*:2]

Target: T1, Sa-ClpP (Staphylococcus aureus, UniProt Q2G036)
T1 construct: made in house; host or cells: E. coli BL21(DE3)
T1 sequence (Q2G036 1-195): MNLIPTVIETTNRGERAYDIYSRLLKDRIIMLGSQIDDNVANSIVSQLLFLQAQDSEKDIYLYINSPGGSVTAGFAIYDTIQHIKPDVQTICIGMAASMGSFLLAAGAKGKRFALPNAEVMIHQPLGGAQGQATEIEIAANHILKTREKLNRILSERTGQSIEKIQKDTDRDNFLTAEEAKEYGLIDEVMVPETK
Experiment: Sa-ClpP casein-BODIPY ClpP activation assay, method variant not marked in Table 5
Assay type: biochemical, S. aureus
Details: not given
Summary of the method: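 EC50 for activation derived by dose-response fitting of casein digestion rates, run in triplicate. Conditions: 37° C, pH 8 buffer with 200 mM KCl and 1 mM TCEP, 10 μM Sa-ClpP, 25 μg/ml BODIPY FL casein, compound at 0-1000 μM; signal at 485/528 nm followed 45 min.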

| Structure (SMILES) | EC50 [nM] |
| --- | --- |
| C[C@@H]1C[C@H]2C(=O)O[C@@H](C)[C@H](NC(=O)[C@H](Cc3cc(F)cc(F)c3)NC(=O)Nc3ccc(Cl)cc3F)C(=O)N3C[C@H](O)C[C@H]3C(=O)N3CCOC[C@H]3C(=O)N[C@@H](C)C(=O)N2C1 [Compound 316, (S)-2-(3-(4-chloro-2-fluorophenyl)ureido)-3-(3,5-difluorophenyl)-N-((6aS,8R,12S,13S,15aS,17R,21S,23aS)-8-hydroxy-13,17,21-trimethyl-6,11,15,20,23-pentaoxooctadecahydro-6H,11H,15H-[1,4]oxazino[3,4-i]dipyrrolo[2,1-c:2′,1′-l][1]oxa[4,7,10,13]tetraazacyclo-hexadecin-12-yl)propanamide] ({NH(4-Cl-2-F-phenyl)-CO}-[Phe(3,5-F2)][aThr][Hyp][Morpholine(3S-CO)]A[Pro(4R-Me)]; ester 2-C) | 450 ± 20 |

Same assay, conditions: values without ** or † mark; assay variant not stated; read-out: ClpP Activation EC50

| Structure (SMILES) | EC50 [nM] |
| --- | --- |
| CCCC/C=C/C(=O)N[C@@H](Cc1cc(F)cc(F)c1)C(=O)N[C@@H]1C(=O)N2C[C@H](O)C[C@H]2C(=O)N2CCOC[C@H]2C(=O)N[C@@H](C)C(=O)N2C[C@H](C)C[C@H]2C(=O)O[C@H]1C [Compound 309, (E)-N—((S)-3-(3,5-difluorophenyl)-1-(((6aS,8R,12S,13S,15aS,17R,21S,23aS)-8-hydroxy-13,17,21-trimethyl-6,11,15,20,23-pentaoxooctadecahydro-6H,11H,15H-[1,4]oxazino[3,4-i]dipyrrolo[2,1-c:2′,1′-l][1]oxa[4,7,10,13]tetraazacyclohexadecin-12-yl)amino)-1-oxopropan-2-yl)hept-2-enamide] ({Heptenoyl(2E)}-[Phe(3,5-F2)][aThr][Hyp][Morpholine(3S-CO)]A[Pro(4R-Me)]; ester 2-C) | 480 ± 20 |
| CCc1ccc(NC(=O)N[C@@H](Cc2cc(F)cc(F)c2)C(=O)N[C@@H]2C(=O)N3CCC[C@H]3C(=O)N(C)[C@@H]([C@H](C)O)C(=O)N[C@@H](C)C(=O)N3C[C@@H](C)C[C@H]3C(=O)O[C@H]2C)cc1 [Compound 204, (S)-3-(3,5-difluorophenyl)-2-(3-(4-ethylphenyl)ureido)-N-((2S,6S,9S,11aS,17S,18S,20aS)-9-((S)-1-hydroxyethyl)-2,6,10,18-tetramethyl-5,8,11,16,20-pentaoxohexadecahydro-1H,5H,16H-dipyrrolo[2,1-c:2′,1′-l][1]oxa[4,7,10,13]tetraazacyclohexadecin-17-yl)propanamide] ({NH(4-Et-phenyl)-CO}-[Phe(3,5-F2)][aThr]P[NMeaThr]A[Pro(4S-Me)]; ester 2-C) | 350 ± 10 |
| CCCC/C=C/C(=O)N[C@@H](Cc1cc(F)cc(F)c1)C(=O)N[C@@H]1C(=O)N2CCC[C@H]2C(=O)N(C)[C@@H]([C@@H](C)O)C(=O)N[C@@H](C)C(=O)N2C[C@H](C)C[C@H]2C(=O)O[C@H]1C [Compound 308, (E)-N—((S)-3-(3,5-difluorophenyl)-1-(((2R,6S,9S,11aS,17S,18S,20aS)-9-((R)-1-hydroxyethyl)-2,6,10,18-tetramethyl-5,8,11,16,20-pentaoxohexadecahydro-1H,5H,16H-dipyrrolo[2,1-c:2′,1′-l][1]oxa[4,7,10,13]tetraazacyclohexadecin-17-yl)amino)-1-oxopropan-2-yl)hept-2-enamide] ({Heptenoyl(2E)}-[Phe(3,5-F2)][aThr]P[NMeT]A[Pro(4R-Me)]; ester 2-C) | 280 ± 20 |
| Cc1ccc(NC(=O)N[C@@H](Cc2cc(F)cc(F)c2)C(=O)N[C@@H]2C(=O)N3CCC[C@H]3C(=O)N3CCCC[C@H]3C(=O)N[C@@H](C)C(=O)N3C[C@H](C)C[C@H]3C(=O)O[C@H]2C)cc1 [Compound 209, (S)-3-(3,5-difluorophenyl)-2-(3-(p-tolyl)ureido)-N-((2R,6S,8aS,14aS,20S,21S,23aS)-2,6,21-trimethyl-5,8,14,19,23-pentaoxooctadecahydro-1H,5H,14H,19H-pyrido[2,1-i]dipyrrolo[2,1-c:2′,1′-l][1]oxa[4,7,10,13]tetraazacyclohexadecin-20-yl)propanamide] ({NH(4-Me-phenyl)-CO}-[Phe(3,5-F2)][aThr]P[Pip]A[Pro(4R-Me)]; ester 2-C) | 360 ± 30 |

Target: T1, Sa-ClpP
Experiment: Casein-BODIPY assay, second described ClpP activation method (EnzCheck Protease Assay, 384 well)
Assay type: biochemical, S. aureus
Details: values marked †: second described ClpP activation assay
Experimental: Alternatively, the assay was carried out using EnzCheck Protease Assay (Molecular Probes, Catalog # E6638). The assay was performed in black 384 well, flat bottom, low volume plates (Greiner Bio-One, Monroe, N.C., catalog #784076). 10 μL of Tris*HCl buffer, pH 8.0 with 0.01% Triton X-100 was pipetted into each well using a Well-Mate (Thermo Scientific, Waltham, Mass.). 0.4 μL test compounds or controls (2% DMSO v/v) were added to each well using a Biomek FX liquid handling robot (Beckman Coulter, Indianapolis Ind.). After addition of test compounds and controls, 10 μL of master mix containing 2 μM Sa-ClpP and 2 μM substrate (Bodipy-FL labeled casein) in Tris*HCl buffer, pH 8.0 with 0.01% (v/v) Triton X-100, was pipetted into each well. All assays were performed in triplicate, under linear velocity conditions. Increase in fluorescent signal following activation of Sa-ClpP by test compounds and controls was measured over time period of 30 mins using filters with excitation at 485±15 nm and emission at 520±25 nm on a PHERAstar FS Multilabel reader (BMG, Cary, N.C.). […] Data analysis was done by measuring rate of casein degradation over time (slopes). Computed degradation rates (slopes) were normalized to positive (ADEP4) or negative (DMSO) controls. Using nonlinear regression curve fitting EC50 values and % activation were determined using the equation “log [agonist] vs. Response-variable slope (four parameters)-symmetrical” in the program Prism 6 (GraphPad Software, La Jolla, Calif. USA, www.graphpad.com).

| Structure (SMILES) | EC50 [nM] |
| --- | --- |
| Cc1ccc(NC(=O)N[C@@H](Cc2cc(F)cc(F)c2)C(=O)N[C@@H]2C(=O)N3CCC[C@H]3C(=O)N(C)[C@@H]([C@@H](C)O)C(=O)N[C@@H](C)C(=O)N3C[C@H](C)C[C@H]3C(=O)O[C@H]2C)cc1 [Compound 38, (S)-3-(3,5-difluorophenyl)-N-((2R,6S,9S,11aS,17S,18S,20aS)-9-((R)-1-hydroxyethyl)-2,6,10,18-tetramethyl-5,8,11,16,20-pentaoxohexadecahydro-1H,5H,16H-dipyrrolo[2,1-c:2′,1′-l][1]oxa[4,7,10,13]tetraazacyclohexadecin-17-yl)-2-(3-(p-tolyl)ureido)propanamide] ({NH(4-Me-phenyl)-CO}-[Phe(3,5-F2)][aThr]P[NMeT]A[Pro(4R-Me)]; ester 2-C) | 330 ± 10 |
| CCc1ccc(NC(=O)N[C@@H](Cc2cc(F)cc(F)c2)C(=O)N[C@@H]2C(=O)N3CCC[C@H]3C(=O)N(C)[C@@H]([C@@H](C)O)C(=O)N[C@@H](C)C(=O)N3C[C@H](C)C[C@H]3C(=O)O[C@H]2C)cc1 [Compound 42, (S)-3-(3,5-difluorophenyl)-2-(3-(4-ethylphenyl)ureido)-N-((2R,6S,9S,11aS,17S,18S,20aS)-9-((R)-1-hydroxyethyl)-2,6,10,18-tetramethyl-5,8,11,16,20-pentaoxohexadecahydro-1H,5H,16H-dipyrrolo[2,1-c:2′,1′-l][1]oxa[4,7,10,13]tetraazacyclohexadecin-17-yl)propanamide] ({NH(4-Et-phenyl)-CO}-[Phe(3,5-F2)][aThr]P[NMeT]A[Pro(4R-Me)]; ester 2-C) | 250 ± 30 |
| C[C@H]1C[C@H]2C(=O)O[C@@H](C)[C@H](NC(=O)[C@H](Cc3cc(F)cc(F)c3)NC(=O)Nc3ccc(OC(F)(F)F)cc3)C(=O)N3CCC[C@H]3C(=O)N(C)[C@@H]([C@@H](C)O)C(=O)N[C@@H](C)C(=O)N2C1 [Compound 36, (S)-3-(3,5-difluorophenyl)-N-((2S,6S,9S,11aS,17S,18S,20aS)-9-((R)-1-hydroxyethyl)-2,6,10,18-tetramethyl-5,8,11,16,20-pentaoxohexadecahydro-1H,5H,16H-dipyrrolo[2,1-c:2′,1′-l][1]oxa[4,7,10,13]tetraazacyclohexadecin-17-yl)-2-(3-(4-(trifluoromethoxy)phenyl)ureido)propanamide] ({NH(4-OCF3-phenyl)-CO}-[Phe(3,5-F2)][aThr]P[NMeT]A[Pro(4S-Me)]; ester 2-C) | 430 ± 10 |
| Cc1ccc(NC(=O)N[C@@H](Cc2cc(F)cc(F)c2)C(=O)N[C@@H]2C(=O)N3C[C@H](O)CC3C(=O)N(C)[C@@H](C)C(=O)N[C@@H](C)C(=O)N3C[C@H](C)CC3C(=O)O[C@H]2C)cc1 (stereo partly drawn) [Compound 31, (S)-3-(3,5-difluorophenyl)-N-((2S,6S,9S,11aS,13R,17S,18S,20aS)-13-hydroxy-2,6,9,10,18-pentamethyl-5,8,11,16,20-pentaoxohexadecahydro-1H,5H,16H-dipyrrolo[2,1-c:2′,1′-l][1]oxa[4,7,10,13]tetraazacyclohexadecin-17-yl)-2-(3-(p-tolyl)ureido)propanamide] ({NH(4-Me-phenyl)-CO}-[Phe(3,5-F2)][aThr][ξPro(4R-OH)][NMeA]A[ξPro(4R-Me)]; ester 2-C) | 370 ± 30 |
| CCc1ccc(NC(=O)N[C@@H](Cc2cc(F)cc(F)c2)C(=O)N[C@@H]2C(=O)N3CCC[C@H]3C(=O)N(C)[C@@H]([C@@H](C)O)C(=O)N[C@@H](C)C(=O)N3C[C@@H](C)C[C@H]3C(=O)O[C@H]2C)cc1 [Compound 37, (S)-3-(3,5-difluorophenyl)-2-(3-(4-ethylphenyl)ureido)-N-((2S,6S,9S,11aS,17S,18S,20aS)-9-((R)-1-hydroxyethyl)-2,6,10,18-tetramethyl-5,8,11,16,20-pentaoxohexadecahydro-1H,5H,16H-dipyrrolo[2,1-c:2′,1′-l][1]oxa[4,7,10,13]tetraazacyclohexadecin-17-yl)propanamide] ({NH(4-Et-phenyl)-CO}-[Phe(3,5-F2)][aThr]P[NMeT]A[Pro(4S-Me)]; ester 2-C) | 350 ± 10 |
